The source of these data is patent US8822464B2, “N-aryl-piperazine derivatives and their use as positive allosteric modulators of mGluR5 receptors” (Boehringer Ingelheim International GmbH, priority 2011, dated 2014).

One may read the EC50 as the concentration that produces a half-maximal response.

Molecules are shown by their SMILES.

The test deals with T1, human recombinant mGluR5 (Homo sapiens, UniProt P41594).
T1 construct: expressed in transfected cells; host or cells: HEK 293 cell line; cultured with tetracycline, hygromycin and geneticin; tetracycline withdrawn 3-7 days before the assay
T1 sequence (P41594 21-1212): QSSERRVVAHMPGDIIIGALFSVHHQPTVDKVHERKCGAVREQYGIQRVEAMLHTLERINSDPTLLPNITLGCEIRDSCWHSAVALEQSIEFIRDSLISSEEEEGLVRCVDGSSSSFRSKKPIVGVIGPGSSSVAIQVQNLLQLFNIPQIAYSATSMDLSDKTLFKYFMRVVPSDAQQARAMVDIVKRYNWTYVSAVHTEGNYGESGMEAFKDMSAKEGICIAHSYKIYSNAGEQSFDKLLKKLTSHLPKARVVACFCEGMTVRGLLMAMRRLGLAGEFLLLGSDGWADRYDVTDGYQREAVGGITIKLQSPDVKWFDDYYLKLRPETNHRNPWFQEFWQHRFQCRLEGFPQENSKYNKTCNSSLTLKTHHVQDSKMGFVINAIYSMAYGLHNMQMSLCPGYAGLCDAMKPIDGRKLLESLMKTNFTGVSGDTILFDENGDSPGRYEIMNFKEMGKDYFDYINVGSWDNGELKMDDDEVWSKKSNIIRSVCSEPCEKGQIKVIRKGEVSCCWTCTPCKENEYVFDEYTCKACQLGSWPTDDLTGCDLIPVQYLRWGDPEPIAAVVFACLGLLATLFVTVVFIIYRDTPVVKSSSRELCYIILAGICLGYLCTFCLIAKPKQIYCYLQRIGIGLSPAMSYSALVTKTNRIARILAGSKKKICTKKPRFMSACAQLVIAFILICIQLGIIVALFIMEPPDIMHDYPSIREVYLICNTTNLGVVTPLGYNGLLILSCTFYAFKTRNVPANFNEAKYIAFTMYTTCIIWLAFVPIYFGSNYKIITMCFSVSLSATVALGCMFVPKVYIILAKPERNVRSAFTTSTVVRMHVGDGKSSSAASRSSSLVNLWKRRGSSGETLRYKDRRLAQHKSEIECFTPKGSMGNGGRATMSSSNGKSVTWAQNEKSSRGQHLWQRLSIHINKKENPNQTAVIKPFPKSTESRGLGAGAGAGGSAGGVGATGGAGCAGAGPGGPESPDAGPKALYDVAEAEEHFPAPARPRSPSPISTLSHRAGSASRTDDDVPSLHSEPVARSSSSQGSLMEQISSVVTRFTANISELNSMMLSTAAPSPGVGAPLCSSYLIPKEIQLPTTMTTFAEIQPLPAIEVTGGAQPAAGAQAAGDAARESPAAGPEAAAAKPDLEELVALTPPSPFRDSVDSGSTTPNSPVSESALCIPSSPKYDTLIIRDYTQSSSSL
The experiment in a line: positive modulation of mGluR5, calcium based FLIPR assay in HEK 293 cells. The note with it: HEK 293 cell line expressing human recombinant mGluR5; peak height of Ca release fluorescence signal after glutamate at approximately 5% basal stimulation; nonlinear regression. In outline: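 HEK 293 cells expressing human mGluR5, tetracycline-free 3-7 days, Calcium-4 dye-loaded in Ringer solution pH 7.4; 1% DMSO final. Compound added 5 min before glutamate at ~5% of maximal effect; peak Ca2+ fluorescence normalized to basal glutamate (100%) and 10 μM CDPPB (200%); EC50 by nonlinear regression.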
Turning to `N#Cc1ccc(N2CCN(C(=O)Cn3nc(-c4ccccc4)cc3-c3ccccc3)CC2)nc1` [Example 7.02.08], the EC50 came out at 934 nM. With `CCc1cc(-c2ccc(F)cc2)nn1CC(=O)N1CCN(c2ncc(OC)cn2)CC1` [Example 7.01.76], the EC50 was 388 nM. For `CCc1cc(-c2ccc(C)c(C)c2)nn1CC(=O)N1CCN(c2cc(OC)ccn2)CC1` [Example 7.01.92], the EC50 came out at 302 nM. Take `CCc1cc(-c2cccc(C#N)c2)nn1CC(=O)N1CCN(c2ncc(OC)cn2)CC1` [Example 7.01.162]: the EC50 came to 343 nM. `CCc1cc(-c2ccc(F)c(C)c2)nn1CC(=O)N1CCN(c2cc(OC)ncn2)CC1` [Example 7.01.67]: the EC50 came to 61 nM.

As for `O=C(Cn1nc(-c2ccc(OC(F)F)cn2)cc1-c1ccccc1)N1CCN(c2ccccn2)CC1` [Example 7.01.179], the concentration for a half-maximal effect (EC50) worked out at 46 nM.

For the compound `COc1ccc(-c2cc(C(C)C)n(CC(=O)N3CCN(c4ncccn4)CC3)n2)cc1` [Example 7.01.19], the EC50 came out at 86 nM.

With `COc1cnnc(N2CCN(C(=O)Cn3nc(-c4ccc(F)c(C)c4)cc3C3CC3)CC2)c1` [Example 7.01.45], the EC50 came out at 1010 nM. Regarding `COc1cc(-c2cc(C(C)C)n(CC(=O)N3CCN(c4cc(C)ccn4)CC3)n2)ccc1F` [Example 7.01.48], the EC50 is 687 nM. As to `CCc1cc(-c2cc(C)c(F)c(C)c2)nn1CC(=O)N1CCN(c2ncc(F)cn2)CC1` [Example 7.01.142], the EC50 was determined as 704 nM. In the case of `COc1cc(N2CCN(C(=O)Cn3nc(-c4ccc(F)c(C)c4)cc3C(C)C)CC2)ncn1` [Example 7.01.27], the EC50 was found to be 64 nM. As to `N#Cc1cccc(-c2cc(-c3ccccc3)nn2CC(=O)N2CCN(c3ncccn3)CC2)c1` [Example 7.01.172], the half-maximal effective concentration (EC50) came to 152 nM.

Take `CCc1cc(-c2ccc(C)c(F)c2)nn1CC(=O)N1CCN(c2ncccn2)CC1` [Example 7.01.181]: the 50% effective concentration (EC50) stood at 130 nM. Under `Cc1cc(-c2cc(-c3ccccc3)n(CC(=O)N3CCN(c4cccnn4)CC3)n2)ccc1F` [Example 7.01.02] stands 9 nM; under `COc1cccc(-c2cc(C3CCCCC3)n(CC(=O)N3CCN(c4ncccn4)CC3)n2)c1` [Example 7.01.17], 117 nM. For `O=C(Cn1nc(-c2ccccc2)cc1-c1ccccc1)N1CCN(c2cnccn2)CC1` [Example 7.02.05], the EC50 turned out to be 85 nM. `COc1cc(-c2cc(-c3ccccc3)n(CC(=O)N3CCN(c4ccccn4)CC3)n2)ccc1F` [Example 7.01.151]: the EC50 turned out to be 19 nM. Regarding `O=C(Cn1nc(-c2ccc(F)cn2)cc1-c1ccc(F)cc1)N1CCN(c2ccccn2)CC1` [Example 7.01.59], the EC50 is 118 nM. For `COc1cc(N2CCN(C(=O)Cn3nc(-c4ccc(F)c(C)c4)cc3C)CC2)ncn1` [Example 7.02.23], the EC50 came to 60 nM. For the compound `CCc1cc(-c2ccc(F)cc2)nn1CC(=O)N1CCN(c2ncccn2)CC1` [Example 7.01.74], the EC50 turned out to be 253 nM. With `Cc1ccc(-c2cc(-c3ccccc3)n(CC(=O)N3CCN(c4ncccn4)CC3)n2)cc1C` [Example 7.01.98], the concentration giving a half-maximal response (EC50) was determined as 13 nM. Next, `O=C(Cn1nc(-c2ccccc2)cc1-c1ccccc1)N1CCN(c2ccccn2)CC1` [Example 7.02.03]: 29 nM. Turning to `CCc1cc(-c2ccc(F)c(C)c2)nn1CC(=O)N1CCN(c2ncccn2)CC1` [Example 7.01.70], the concentration for a half-maximal effect (EC50) is 41 nM. Under `COc1ccc(-c2cc(C(C)C)n(CC(=O)N3CCN(c4ccccn4)CC3)n2)cc1C` [Example 7.01.56] stands 393 nM.

Consider `Cc1ccc(-c2cc(-c3ccccc3)n(CC(=O)N3CCN(c4ccccn4)CC3)n2)cc1C` [Example 7.01.102], for which the EC50 was found to be 20 nM. For `Cc1cc(-c2cc(-c3ccccc3)n(CC(=O)N3CCN(c4ccccn4)CC3)n2)ccc1F` [Example 7.01.04], the EC50 stood at 11 nM. As to `Cc1cc(-c2cc(C3CC3)n(CC(=O)N3CCN(c4cccnn4)CC3)n2)ccc1F` [Example 7.01.43], the EC50 is 725 nM. For the compound `Cc1cc(-c2cc(CC(C)C)n(CC(=O)N3CCN(c4ncc(F)cn4)CC3)n2)ccc1F` [Example 7.01.122], the EC50 stood at 51 nM. With `COc1cc(N2CCN(C(=O)Cn3nc(-c4ccc(F)c(OC)c4)cc3C(C)C)CC2)ncn1` [Example 7.01.47], the EC50 was 447 nM.

With `O=C(Cn1nc(-c2cccc(Cl)c2)cc1-c1ccccc1)N1CCN(c2ncccn2)CC1` [Example 7.01.149], the EC50 was 12 nM. Next, `CCc1cc(-c2cccc(C#N)c2)nn1CC(=O)N1CCN(c2cc(OC)ncn2)CC1` [Example 7.01.163]: 490 nM; `O=C(Cn1nc(-c2ccc(F)cn2)cc1-c1ccc(F)cc1)N1CCN(c2cccnn2)CC1` [Example 7.01.64]: 677 nM; `COCc1cc(-c2ccc(F)c(C)c2)nn1CC(=O)N1CCN(c2cc(OC)ccn2)CC1` [Example 7.02.17]: 182 nM.

Consider `COCc1cc(-c2ccc(F)c(C)c2)nn1CC(=O)N1CCN(c2ncccn2)CC1` [Example 7.02.15], for which the EC50 is 153 nM.

For the compound `CCc1cc(-c2ccc(C)c(C)c2)nn1CC(=O)N1CCN(c2ncc(OC)cn2)CC1` [Example 7.01.99], the EC50 turned out to be 129 nM.
